Experimental findings from ChEMBL document CHEMBL5291721, “A preclinical secondary pharmacology resource illuminates target-adverse drug reaction associations of marketed drugs” (Nat Commun, 2023) are described below.

SMILES strings stand for the structures. *1 amine or outer side, *2 acyl side, *3 side chain or, on linkers, in order; H or OH if unused. Where a SMILES comes first, the peptide text is derived from it. Bridges are numbered along the chain shown (N, C = ends). [ ]: non-standard residue; d: D form. The star is where a group is joined. hTyr(3S-OH,4S-OH,3'-OSO3H) = N[C@H](C(=O)O)[C@H](O)[C@@H](O)c1ccc(O)c(OS(=O)(=O)O)c1; Orn(4R-OH,5R-OH) = O=C([C@H](C[C@@H](O)[C@@H](O)N[*:3])N[*:1])[*:2]; Pro(3S-OH,4S-Me) = C[C@H]1CN[C@H](C(=O)O)[C@H]1O; X1 = CCCCCOc1ccc(-c2cc(-c3ccc(C(=O)*)cc3)no2)cc1; Gln(3R-OH) = NC(=O)C[C@@H](O)[C@H](N)C(=O)O; Hyp = O=C(O)[C@@H]1C[C@@H](O)CN1

Targets include D(3) dopamine receptor (Homo sapiens, UniProt P35462); Mu-type opioid receptor (Homo sapiens, UniProt P35372); D(1A) dopamine receptor (Homo sapiens, UniProt P21728); Histamine H3 receptor (Homo sapiens, UniProt Q9Y5N1).
Test [1] has as its target 3',5'-cyclic-AMP phosphodiesterase 4A (Homo sapiens, UniProt P27815). It is filed as functional.
Test [2] concerns the target cGMP-inhibited 3',5'-cyclic phosphodiesterase 3A (Homo sapiens, UniProt Q14432). Type of test: functional.
For test [3], the target named is T1, 5-hydroxytryptamine receptor 1A (Homo sapiens, UniProt P08908).
T1 sequence (P08908 whole entry): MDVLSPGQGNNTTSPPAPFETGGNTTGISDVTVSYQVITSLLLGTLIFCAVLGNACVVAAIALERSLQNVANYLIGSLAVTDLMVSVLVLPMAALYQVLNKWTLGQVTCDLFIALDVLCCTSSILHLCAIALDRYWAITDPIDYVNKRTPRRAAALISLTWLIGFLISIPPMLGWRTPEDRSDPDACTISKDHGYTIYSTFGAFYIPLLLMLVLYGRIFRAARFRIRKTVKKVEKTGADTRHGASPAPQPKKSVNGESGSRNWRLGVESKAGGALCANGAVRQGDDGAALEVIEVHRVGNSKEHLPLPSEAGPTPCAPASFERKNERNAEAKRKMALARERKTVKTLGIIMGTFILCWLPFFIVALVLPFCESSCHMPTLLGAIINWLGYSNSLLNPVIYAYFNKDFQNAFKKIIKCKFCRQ

Test [4] has as its target Sodium-dependent noradrenaline transporter (Homo sapiens, UniProt P23975).
In a further test the target is Acetylcholinesterase (Homo sapiens, UniProt P22303). It is filed as functional.
Sequence of Acetylcholinesterase (P22303 whole entry): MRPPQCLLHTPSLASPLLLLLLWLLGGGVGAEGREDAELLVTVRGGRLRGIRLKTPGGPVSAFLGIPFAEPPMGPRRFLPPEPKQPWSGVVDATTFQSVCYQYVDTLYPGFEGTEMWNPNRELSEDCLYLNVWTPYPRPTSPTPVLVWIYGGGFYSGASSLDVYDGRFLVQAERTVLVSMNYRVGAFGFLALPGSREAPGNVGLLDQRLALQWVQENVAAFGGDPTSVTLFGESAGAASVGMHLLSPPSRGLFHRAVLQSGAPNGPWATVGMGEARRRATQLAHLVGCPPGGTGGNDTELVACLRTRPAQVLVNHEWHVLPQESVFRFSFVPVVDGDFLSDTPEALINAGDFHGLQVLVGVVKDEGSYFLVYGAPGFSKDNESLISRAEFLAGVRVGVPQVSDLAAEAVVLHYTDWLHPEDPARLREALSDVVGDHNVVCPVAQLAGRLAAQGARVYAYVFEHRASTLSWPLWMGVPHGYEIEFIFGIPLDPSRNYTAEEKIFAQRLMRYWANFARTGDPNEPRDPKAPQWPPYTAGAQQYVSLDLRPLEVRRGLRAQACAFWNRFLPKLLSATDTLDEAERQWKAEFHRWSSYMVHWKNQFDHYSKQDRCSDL
Test [5] has as its target Sodium-dependent dopamine transporter (Homo sapiens, UniProt Q01959).
Test [6] addresses T2, Prostaglandin G/H synthase 1 (Homo sapiens, UniProt P23219). It is filed as functional.
Test [7] concerns the target T2, Prostaglandin G/H synthase 1. Type of test: functional. The source holds these as a separate data set.
The target of test [8] is T3, Amine oxidase [flavin-containing] A (Homo sapiens, UniProt P21397).
T3 sequence (P21397 whole entry): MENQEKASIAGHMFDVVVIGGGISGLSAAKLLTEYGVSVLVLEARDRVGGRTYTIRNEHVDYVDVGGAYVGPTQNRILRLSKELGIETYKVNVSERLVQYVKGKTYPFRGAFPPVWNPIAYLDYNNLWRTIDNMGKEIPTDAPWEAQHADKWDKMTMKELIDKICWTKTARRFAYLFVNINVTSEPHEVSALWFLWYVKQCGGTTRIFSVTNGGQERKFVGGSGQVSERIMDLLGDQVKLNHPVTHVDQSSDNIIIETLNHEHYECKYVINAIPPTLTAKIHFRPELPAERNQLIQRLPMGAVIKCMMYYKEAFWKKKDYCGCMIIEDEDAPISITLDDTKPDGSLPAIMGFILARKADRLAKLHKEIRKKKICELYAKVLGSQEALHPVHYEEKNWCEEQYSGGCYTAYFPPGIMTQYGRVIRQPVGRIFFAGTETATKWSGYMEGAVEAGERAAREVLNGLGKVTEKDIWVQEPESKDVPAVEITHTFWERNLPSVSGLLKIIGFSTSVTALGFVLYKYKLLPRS
It is filed as functional.

The target of test [9] is T4, Thromboxane A2 receptor (Homo sapiens, UniProt P21731).
T4 sequence (P21731 whole entry): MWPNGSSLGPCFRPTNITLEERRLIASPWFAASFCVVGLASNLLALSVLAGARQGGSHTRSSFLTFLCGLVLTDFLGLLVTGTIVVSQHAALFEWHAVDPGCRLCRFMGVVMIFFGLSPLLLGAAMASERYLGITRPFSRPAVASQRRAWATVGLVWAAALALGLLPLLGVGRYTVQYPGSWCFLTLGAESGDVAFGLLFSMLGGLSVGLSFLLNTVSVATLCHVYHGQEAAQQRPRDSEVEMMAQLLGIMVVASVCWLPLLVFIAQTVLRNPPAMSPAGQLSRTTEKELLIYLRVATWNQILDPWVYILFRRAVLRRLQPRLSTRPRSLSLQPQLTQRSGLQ
Type of test: functional, cell-based.

In test [10] the target is T4, Thromboxane A2 receptor. Type of test: functional, cell-based. This is another data set of the same source.
Test [11] concerns the target 5-hydroxytryptamine receptor 2B (Homo sapiens, UniProt P41595). It is filed as functional, cell-based.
Test [12] addresses T5, Muscarinic acetylcholine receptor M2 (Homo sapiens, UniProt P08172).
T5 sequence (P08172 whole entry): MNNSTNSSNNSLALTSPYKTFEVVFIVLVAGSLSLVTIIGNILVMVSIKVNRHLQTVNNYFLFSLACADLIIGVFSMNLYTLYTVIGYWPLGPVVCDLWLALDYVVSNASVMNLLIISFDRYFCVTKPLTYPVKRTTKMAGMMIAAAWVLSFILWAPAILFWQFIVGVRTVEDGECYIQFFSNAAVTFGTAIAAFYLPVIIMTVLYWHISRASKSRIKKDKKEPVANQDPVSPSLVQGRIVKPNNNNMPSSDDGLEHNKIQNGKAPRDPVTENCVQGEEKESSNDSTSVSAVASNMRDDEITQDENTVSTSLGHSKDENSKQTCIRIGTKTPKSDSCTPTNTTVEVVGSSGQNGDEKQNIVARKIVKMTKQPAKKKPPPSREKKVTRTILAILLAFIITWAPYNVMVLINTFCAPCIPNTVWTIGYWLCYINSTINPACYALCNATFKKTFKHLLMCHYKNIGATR

Test [13] deals with Voltage-gated inwardly rectifying potassium channel KCNH2 (Homo sapiens, UniProt Q12809). It is filed as functional. The following applies: read-out: AC50.
Further: assay procedure not described here.

T2 sequence (P23219 whole entry): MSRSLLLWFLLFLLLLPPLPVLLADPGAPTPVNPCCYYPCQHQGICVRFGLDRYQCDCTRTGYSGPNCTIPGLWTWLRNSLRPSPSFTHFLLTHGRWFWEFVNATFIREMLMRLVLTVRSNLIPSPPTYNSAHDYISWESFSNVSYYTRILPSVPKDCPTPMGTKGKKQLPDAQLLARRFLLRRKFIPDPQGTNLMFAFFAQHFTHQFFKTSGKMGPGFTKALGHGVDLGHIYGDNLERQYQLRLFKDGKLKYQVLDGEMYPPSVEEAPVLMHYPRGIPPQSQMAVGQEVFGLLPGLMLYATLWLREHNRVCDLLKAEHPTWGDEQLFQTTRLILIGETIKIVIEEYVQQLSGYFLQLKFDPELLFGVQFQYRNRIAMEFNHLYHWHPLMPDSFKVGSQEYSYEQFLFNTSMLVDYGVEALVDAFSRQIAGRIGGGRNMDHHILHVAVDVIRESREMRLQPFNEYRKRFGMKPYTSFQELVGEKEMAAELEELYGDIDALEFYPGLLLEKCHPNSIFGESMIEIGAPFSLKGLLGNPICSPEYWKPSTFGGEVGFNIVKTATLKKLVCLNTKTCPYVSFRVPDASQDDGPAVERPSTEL
Sequence of Histamine H3 receptor (Q9Y5N1 whole entry): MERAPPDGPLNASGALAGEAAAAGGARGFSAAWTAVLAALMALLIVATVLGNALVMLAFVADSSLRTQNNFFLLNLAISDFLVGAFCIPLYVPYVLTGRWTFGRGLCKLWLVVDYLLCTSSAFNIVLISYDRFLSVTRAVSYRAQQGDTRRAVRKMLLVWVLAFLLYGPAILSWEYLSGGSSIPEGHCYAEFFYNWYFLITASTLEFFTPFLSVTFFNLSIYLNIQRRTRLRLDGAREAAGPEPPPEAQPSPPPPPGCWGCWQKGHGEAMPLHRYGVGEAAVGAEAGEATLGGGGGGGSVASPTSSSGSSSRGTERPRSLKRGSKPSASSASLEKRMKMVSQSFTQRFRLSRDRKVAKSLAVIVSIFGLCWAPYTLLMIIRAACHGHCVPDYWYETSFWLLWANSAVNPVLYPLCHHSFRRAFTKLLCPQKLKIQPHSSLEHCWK
Sequence of 5-hydroxytryptamine receptor 2B (P41595 whole entry): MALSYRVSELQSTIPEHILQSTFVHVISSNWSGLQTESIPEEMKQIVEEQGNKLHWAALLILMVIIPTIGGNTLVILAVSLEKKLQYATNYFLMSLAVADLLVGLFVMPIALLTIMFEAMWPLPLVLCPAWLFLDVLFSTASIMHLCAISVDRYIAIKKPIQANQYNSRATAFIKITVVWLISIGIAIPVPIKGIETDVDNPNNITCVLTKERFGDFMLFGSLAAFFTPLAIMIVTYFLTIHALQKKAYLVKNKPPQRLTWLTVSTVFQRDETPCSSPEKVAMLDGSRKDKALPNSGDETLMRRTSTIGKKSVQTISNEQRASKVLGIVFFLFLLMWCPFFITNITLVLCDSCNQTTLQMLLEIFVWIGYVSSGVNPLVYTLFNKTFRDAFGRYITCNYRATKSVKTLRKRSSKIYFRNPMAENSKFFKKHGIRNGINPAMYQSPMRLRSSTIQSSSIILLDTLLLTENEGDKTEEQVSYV
Sequence of Mu-type opioid receptor (P35372 whole entry): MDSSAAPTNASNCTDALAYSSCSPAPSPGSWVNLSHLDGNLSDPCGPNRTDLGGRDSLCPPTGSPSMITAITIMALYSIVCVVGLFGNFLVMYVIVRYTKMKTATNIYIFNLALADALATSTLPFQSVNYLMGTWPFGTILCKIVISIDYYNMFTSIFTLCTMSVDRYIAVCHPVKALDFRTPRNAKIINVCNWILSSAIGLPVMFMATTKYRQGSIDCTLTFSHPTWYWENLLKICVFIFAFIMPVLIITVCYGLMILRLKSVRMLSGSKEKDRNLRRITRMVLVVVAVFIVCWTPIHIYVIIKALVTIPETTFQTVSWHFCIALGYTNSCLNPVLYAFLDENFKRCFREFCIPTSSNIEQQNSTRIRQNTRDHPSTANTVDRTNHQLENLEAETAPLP
Sequence of D(1A) dopamine receptor (P21728 whole entry): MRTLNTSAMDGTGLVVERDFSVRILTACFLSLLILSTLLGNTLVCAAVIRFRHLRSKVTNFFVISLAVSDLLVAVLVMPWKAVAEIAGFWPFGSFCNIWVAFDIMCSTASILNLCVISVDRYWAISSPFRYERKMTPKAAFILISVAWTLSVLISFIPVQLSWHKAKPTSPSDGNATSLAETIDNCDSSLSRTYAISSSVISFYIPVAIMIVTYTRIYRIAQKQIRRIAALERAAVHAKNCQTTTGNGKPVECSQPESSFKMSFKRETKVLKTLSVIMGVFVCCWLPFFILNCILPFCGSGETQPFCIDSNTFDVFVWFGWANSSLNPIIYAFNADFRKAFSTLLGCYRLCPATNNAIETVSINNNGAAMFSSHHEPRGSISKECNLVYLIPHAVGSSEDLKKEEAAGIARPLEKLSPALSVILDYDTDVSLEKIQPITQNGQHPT
Sequence of Sodium-dependent noradrenaline transporter (P23975 whole entry): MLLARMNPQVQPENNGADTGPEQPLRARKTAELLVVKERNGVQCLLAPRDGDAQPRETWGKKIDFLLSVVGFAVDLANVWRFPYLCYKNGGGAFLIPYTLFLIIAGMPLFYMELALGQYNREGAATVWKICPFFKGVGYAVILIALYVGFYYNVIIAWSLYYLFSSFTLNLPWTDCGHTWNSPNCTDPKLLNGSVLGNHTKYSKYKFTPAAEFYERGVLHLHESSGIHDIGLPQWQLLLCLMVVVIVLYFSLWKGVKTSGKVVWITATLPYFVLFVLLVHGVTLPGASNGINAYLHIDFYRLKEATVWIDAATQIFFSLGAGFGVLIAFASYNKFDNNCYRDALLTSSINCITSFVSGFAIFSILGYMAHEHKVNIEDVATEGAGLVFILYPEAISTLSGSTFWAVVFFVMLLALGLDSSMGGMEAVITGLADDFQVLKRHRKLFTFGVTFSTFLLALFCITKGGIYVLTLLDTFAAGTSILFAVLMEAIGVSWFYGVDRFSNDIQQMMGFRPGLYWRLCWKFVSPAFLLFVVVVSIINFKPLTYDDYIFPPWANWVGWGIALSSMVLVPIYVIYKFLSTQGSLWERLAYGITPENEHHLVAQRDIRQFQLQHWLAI
Sequence of Sodium-dependent dopamine transporter (Q01959 whole entry): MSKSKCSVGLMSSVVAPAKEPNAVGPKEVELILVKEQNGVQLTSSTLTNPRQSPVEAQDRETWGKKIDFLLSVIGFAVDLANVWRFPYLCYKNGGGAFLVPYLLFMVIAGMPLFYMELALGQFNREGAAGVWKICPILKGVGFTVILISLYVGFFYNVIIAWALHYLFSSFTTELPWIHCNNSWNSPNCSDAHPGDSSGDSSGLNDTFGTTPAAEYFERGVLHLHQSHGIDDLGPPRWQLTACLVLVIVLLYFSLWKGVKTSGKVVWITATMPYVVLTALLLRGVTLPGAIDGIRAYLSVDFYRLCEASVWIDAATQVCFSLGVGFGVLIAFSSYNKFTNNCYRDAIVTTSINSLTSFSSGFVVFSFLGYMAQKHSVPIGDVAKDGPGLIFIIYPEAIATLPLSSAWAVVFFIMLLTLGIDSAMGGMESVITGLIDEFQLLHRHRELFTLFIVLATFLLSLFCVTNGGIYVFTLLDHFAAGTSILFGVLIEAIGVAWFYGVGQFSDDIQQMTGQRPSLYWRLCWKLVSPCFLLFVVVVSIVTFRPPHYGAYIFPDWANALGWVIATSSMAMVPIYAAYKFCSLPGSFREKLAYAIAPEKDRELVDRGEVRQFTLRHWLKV
Sequence of D(3) dopamine receptor (P35462 whole entry): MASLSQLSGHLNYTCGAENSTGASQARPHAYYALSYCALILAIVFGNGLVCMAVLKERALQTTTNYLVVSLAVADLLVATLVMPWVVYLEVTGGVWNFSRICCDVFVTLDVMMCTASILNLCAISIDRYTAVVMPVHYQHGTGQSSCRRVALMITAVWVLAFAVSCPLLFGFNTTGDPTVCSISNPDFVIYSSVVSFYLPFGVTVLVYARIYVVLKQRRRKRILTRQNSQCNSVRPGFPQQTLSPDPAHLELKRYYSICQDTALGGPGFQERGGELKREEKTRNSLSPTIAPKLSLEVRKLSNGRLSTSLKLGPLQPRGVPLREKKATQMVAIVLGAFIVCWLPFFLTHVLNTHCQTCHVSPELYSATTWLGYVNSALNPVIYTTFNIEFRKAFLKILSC

As usually defined, the AC50 is the concentration at which the activity in the assay is half-maximal. In the case of `CN1CCC[C@@H]1Cc1c[nH]c2ccc(CCS(=O)(=O)c3ccccc3)cc12`, the half-maximal activity concentration (AC50) in test [1] was above 30 µM; in test [2], above 30 µM; on D(3) dopamine receptor, above 30 µM; in test [3], 0.0214 µM; in test [4], 17.8 µM; on Acetylcholinesterase, above 30 µM. Further, the AC50 at Mu-type opioid receptor is 8 µM; in test [5], 26.6 µM; on D(1A) dopamine receptor it was 27.7 µM; in [6], above 30 µM; in test [7] it was above 30 µM; in test [8], above 30 µM. The AC50 was above 30 µM on Thromboxane A2 receptor [9], 5.7 µM at Histamine H3 receptor, above 30 µM at Thromboxane A2 receptor [10] and above 10 µM in test [11].
For `O=C(Nc1cccc2c(=O)cc(-c3nnn[nH]3)oc12)c1ccc(OCCCCc2ccccc2)cc1`, the AC50 in test [1] is 8.21 µM; in [2], above 30 µM; on D(3) dopamine receptor, 4.45 µM; in test [3] it was 4.1 µM; in test [4], 7.06 µM; at Acetylcholinesterase, above 30 µM. Further, the AC50 was 4.64 µM on Mu-type opioid receptor; 8.24 µM in [5]; 10.1 µM on D(1A) dopamine receptor; above 30 µM in test [6]; 26.7 µM in [7]; above 30 µM in test [12]. The half-maximal activity concentration (AC50) (in test [8]; on Thromboxane A2 receptor [9]; at Histamine H3 receptor; at Thromboxane A2 receptor [10]; in [11]) was above 30 µM throughout.
On to `N[C@@H](CSSC[C@H](N)C(=O)O)C(=O)O` [CYSTINE], for which the half-maximal activity concentration (AC50) (in [1]; in test [2]; on D(3) dopamine receptor; in test [3]; in [4]; at Acetylcholinesterase) was above 30 µM throughout. For the same compound, the half-maximal activity concentration (AC50) (at Mu-type opioid receptor; in test [5]; at D(1A) dopamine receptor; in test [6]; in test [7]; in test [12]) was above 30 µM each time. The AC50 (in [8]; on Thromboxane A2 receptor [9]; on Histamine H3 receptor; at Thromboxane A2 receptor [10]; in [11]) was above 30 µM throughout.
Take `C[C@]12CCC(=O)C=C1CC[C@@H]1[C@@H]2[C@@H](O)C[C@@]2(C)[C@H]1CC[C@]2(O)C(=O)COC(=O)CCC(=O)O` [HYDROCORTISONE HEMISUCCINATE ANHYDROUS]: the AC50 (in test [1]; in [2]; in test [3]; in [4]; at Acetylcholinesterase; at Mu-type opioid receptor) was above 30 µM in each case. The AC50 (in test [5]; on D(1A) dopamine receptor; in [6]; in [7]; in test [12]; in test [13]) was above 30 µM throughout. Moreover, the concentration at half-maximal activity (AC50) (in test [8]; on Thromboxane A2 receptor [9]; at Histamine H3 receptor; at Thromboxane A2 receptor [10]; in test [11]) was above 30 µM throughout.
`CC(C)(N)C(=O)N[C@H](Cc1c[nH]c2ccccc12)C(=O)N[C@H](Cc1c[nH]c2ccccc12)NC=O` [MACIMORELIN]: the AC50 (in [1]; in test [2]; at D(3) dopamine receptor; in test [3]; in [4]; at Acetylcholinesterase) was above 30 µM in each case. The half-maximal activity concentration (AC50) was 0.75 µM at Mu-type opioid receptor; above 30 µM in [5]; above 30 µM at D(1A) dopamine receptor; above 30 µM in test [6]; above 30 µM in test [7]; above 30 µM in [12]. The concentration at half-maximal activity (AC50) (in test [8]; on Thromboxane A2 receptor [9]; on Histamine H3 receptor; at Thromboxane A2 receptor [10]; in test [11]) was above 30 µM in each case.
For `CCCCCOc1ccc(-c2cc(-c3ccc(C(=O)N[C@H]4C[C@@H](O)[C@@H](O)NC(=O)[C@@H]5[C@@H](O)[C@@H](C)CN5C(=O)[C@H]([C@H](O)CC(N)=O)NC(=O)[C@H]([C@H](O)[C@@H](O)c5ccc(O)c(OS(=O)(=O)O)c5)NC(=O)[C@@H]5C[C@@H](O)CN5C(=O)[C@H]([C@@H](C)O)NC4=O)cc3)no2)cc1` [MICAFUNGIN] (X1-[Orn(4R-OH,5R-OH)]T[Hyp][hTyr(3S-OH,4S-OH,3'-OSO3H)][Gln(3R-OH)][Pro(3S-OH,4S-Me)]; lactam 1-C), the AC50 in [1] was 29.5 µM; in test [2], above 30 µM; at D(3) dopamine receptor, above 30 µM; in test [3], above 30 µM; in test [4], 14.6 µM; at Acetylcholinesterase, above 30 µM. Further, the AC50 is 7.68 µM at Mu-type opioid receptor; 21.7 µM in [5]; above 30 µM on D(1A) dopamine receptor; above 30 µM in test [6]; above 30 µM in test [7]; above 30 µM in [12]. For the same compound, the concentration at half-maximal activity (AC50) is above 30 µM in [8]; 7.12 µM at Thromboxane A2 receptor [9]; above 30 µM on Histamine H3 receptor; above 30 µM at Thromboxane A2 receptor [10]; above 30 µM in test [11].
For the compound `CN1CCC[C@H]1c1cccnc1` [NICOTINE], the AC50 (in test [1]; in test [2]; on D(3) dopamine receptor; in [3]; in test [4]; on Acetylcholinesterase) was above 30 µM throughout. In addition, the AC50 at Mu-type opioid receptor was above 30 µM; in test [5] it was above 30 µM; on D(1A) dopamine receptor it was above 30 µM; in [6], above 30 µM; in [7], 22 µM; in [12] it was above 30 µM. Besides, the AC50 (in [8]; on Thromboxane A2 receptor [9]; on Histamine H3 receptor; on Thromboxane A2 receptor [10]; in [11]) was above 30 µM each time.
